Measurements published in the supplement of paper PMC12698765.
Counter-ions that a name gives are not always drawn. ± gives the standard deviation of the averaged measurements.

Assays:
[1] = test system: 409B2 hiPSC (iCRISPR Cas9, FRMD7 editing); assay: cell survival relative to solvent control (fold (ratio to mock)); higher = more surviving cells
Description: (§1)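 Subset screen of 55 drugs tested at 5 concentrations around the effective screening dose, in 409B2 iCRISPR Cas9 hiPSCs editing FRMD7 with a ssDNA donor. Drugs were applied for 24 h. Viability was read by resazurin and editing outcomes by amplicon sequencing (HDR, NHEJ <2 bp microhomology, MMEJ ≥2 bp microhomology). Values are relative to solvent mock controls; two biological replicates.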

[2] = test system: 409B2 hiPSC (iCRISPR Cas9, FRMD7 editing); assay: NHEJ-attributed indel frequency relative to solvent control (fold (ratio to mock)); higher = more NHEJ outcomes
Description: as §1

[3] = test system: 409B2 hiPSC (iCRISPR Cas9, FRMD7 editing); assay: MMEJ-attributed deletion frequency relative to solvent control (fold (ratio to mock)); higher = more MMEJ outcomes
Description: as §1

[4] = test system: 409B2 hiPSC (iCRISPR Cas9, FRMD7 editing); assay: HDR (precise edit) frequency relative to solvent control (fold (ratio to mock)); higher = more homology-directed repair outcomes
Description: as §1

`CC[C@]1(O)C[C@@H]2CN(CCc3c([nH]c4ccccc34)[C@@](C(=O)OC)(c3cc4c(cc3OC)N(C)[C@H]3[C@@](O)(C(=O)OC)[C@H](OC(C)=O)[C@]5(CC)C=CCN6CC[C@]43[C@@H]65)C2)C1` [Vinblastine sulfate] (in DMSO) showed a cell survival ([1]; 2 nM) of 0.687, a cell survival ([1]; 5 nM) of 0.117 and a cell survival ([1]; 10 nM) of 0.0623. It also gave a cell survival ([1]; 20 nM) of 0.00294, a cell survival ([1]; 50 nM) of 0.00452 and an NHEJ-attributed indel frequency ([2]; 2 nM) of 1.04 ± 0.018. The NHEJ-attributed indel frequency ([2]; 5 nM) was 0.958 ± 0.12, the NHEJ-attributed indel frequency ([2]; 10 nM) was 0.792 ± 0.39 and the NHEJ-attributed indel frequency ([2]; 20 nM) was 0.606 ± 0.21. It also gave an NHEJ-attributed indel frequency ([2]; 50 nM) of 0.498 ± 0.064, an MMEJ-attributed deletion frequency ([3]; 2 nM) of 1.11 ± 0.049 and an MMEJ-attributed deletion frequency ([3]; 5 nM) of 1.08 ± 0.057. The MMEJ-attributed deletion frequency ([3]; 10 nM) was 1.13 ± 0.55, the MMEJ-attributed deletion frequency ([3]; 20 nM) was 0.779 ± 0.3 and the MMEJ-attributed deletion frequency ([3]; 50 nM) was 0.6333 ± 0.0063. The HDR ([4]; 2 nM) was 1.08 ± 0.098, the HDR ([4]; 5 nM) was 0.737 ± 0.042 and the HDR ([4]; 10 nM) was 0.633 ± 0.4. For the same compound, the HDR ([4]; 20 nM) was 0.511 ± 0.28 and the HDR ([4]; 50 nM) was 0.302 ± 0.056.

With `CC(=O)c1c(C)c2cnc(Nc3ccc(N4CCNCC4)cn3)nc2n(C2CCCC2)c1=O` (in DMSO) the cell survival ([1]; 2000 nM) was 0.475, the cell survival ([1]; 5000 nM) was 0.185 and the cell survival ([1]; 10000 nM) was 0.0327. For the same compound, the cell survival ([1]; 20000 nM) was -0.0205, the cell survival ([1]; 50000 nM) was 0.00851 and the NHEJ-attributed indel frequency ([2]; 2000 nM) was 0.989 ± 0.048. It also gave an NHEJ-attributed indel frequency ([2]; 5000 nM) of 0.993 ± 0.073, an NHEJ-attributed indel frequency ([2]; 10000 nM) of 0.46 ± 0.24 and an NHEJ-attributed indel frequency ([2]; 20000 nM) of 0.127 ± 0.018. For the same compound, the NHEJ-attributed indel frequency ([2]; 50000 nM) was 0.12 ± 0.036, the MMEJ-attributed deletion frequency ([3]; 2000 nM) was 0.907 ± 0.03 and the MMEJ-attributed deletion frequency ([3]; 5000 nM) was 1.19 ± 0.17. The MMEJ-attributed deletion frequency ([3]; 10000 nM) was 0.73 ± 0.046, the MMEJ-attributed deletion frequency ([3]; 20000 nM) was 0.458 ± 0.082 and the MMEJ-attributed deletion frequency ([3]; 50000 nM) was 0.244 ± 0.076. For the same compound, the HDR ([4]; 2000 nM) was 1.01 ± 0.011, the HDR ([4]; 5000 nM) was 0.587 ± 0.11 and the HDR ([4]; 10000 nM) was 0.152 ± 0.029. The HDR ([4]; 20000 nM) was 0.0501 ± 0.0028 and the HDR ([4]; 50000 nM) was 0.0996 ± 0.032.

Compound `O=[N+]([O-])O[C@@H]1CO[C@H]2[C@@H]1OC[C@@H]2O` [Isosorbide 5-mononitrate] (in DMSO) has a cell survival ([1]; 2000 nM) of 0.898, a cell survival ([1]; 5000 nM) of 1.39 and a cell survival ([1]; 10000 nM) of 1.19. The cell survival ([1]; 20000 nM) was 1.15, the cell survival ([1]; 50000 nM) was 1.36 and the NHEJ-attributed indel frequency ([2]; 2000 nM) was 0.899 ± 0.036. The NHEJ-attributed indel frequency ([2]; 5000 nM) was 0.9787 ± 0.0053, the NHEJ-attributed indel frequency ([2]; 10000 nM) was 0.967 ± 0.016 and the NHEJ-attributed indel frequency ([2]; 20000 nM) was 0.988 ± 0.033. It also gave an NHEJ-attributed indel frequency ([2]; 50000 nM) of 0.983 ± 0.013, an MMEJ-attributed deletion frequency ([3]; 2000 nM) of 0.904 ± 0.25 and an MMEJ-attributed deletion frequency ([3]; 5000 nM) of 0.993 ± 0.058. It also gave an MMEJ-attributed deletion frequency ([3]; 10000 nM) of 0.983 ± 0.057, an MMEJ-attributed deletion frequency ([3]; 20000 nM) of 0.994 ± 0.012 and an MMEJ-attributed deletion frequency ([3]; 50000 nM) of 0.955 ± 0.048. The HDR ([4]; 2000 nM) was 1.08 ± 0.25, the HDR ([4]; 5000 nM) was 1.14 ± 0.04 and the HDR ([4]; 10000 nM) was 1.14 ± 0.051. It also gave an HDR ([4]; 20000 nM) of 1.07 ± 0.14 and an HDR ([4]; 50000 nM) of 1.22 ± 0.11.

`CC[C@@]1(O)C(=O)OCc2c1cc1n(c2=O)Cc2cc3c(CN(C)C)c(O)ccc3nc2-1` [Topotecan] (in DMSO) showed a cell survival ([1]; 2 nM) of 0.777, a cell survival ([1]; 5 nM) of 0.814 and a cell survival ([1]; 10 nM) of 0.361. For the same compound, the cell survival ([1]; 20 nM) was 0.0825, the cell survival ([1]; 50 nM) was 0.0185 and the NHEJ-attributed indel frequency ([2]; 2 nM) was 0.951 ± 0.029. The NHEJ-attributed indel frequency ([2]; 5 nM) was 0.936 ± 0.04, the NHEJ-attributed indel frequency ([2]; 10 nM) was 0.896 ± 0.032 and the NHEJ-attributed indel frequency ([2]; 20 nM) was 0.68 ± 0.029. It also gave an NHEJ-attributed indel frequency ([2]; 50 nM) of 0.625 ± 0.023, an MMEJ-attributed deletion frequency ([3]; 2 nM) of 1.13 ± 0.065 and an MMEJ-attributed deletion frequency ([3]; 5 nM) of 1.04 ± 0.1. The MMEJ-attributed deletion frequency ([3]; 10 nM) was 0.835 ± 0.1, the MMEJ-attributed deletion frequency ([3]; 20 nM) was 0.595 ± 0.26 and the MMEJ-attributed deletion frequency ([3]; 50 nM) was 0.699 ± 0.15. For the same compound, the HDR ([4]; 2 nM) was 1.11 ± 0.042, the HDR ([4]; 5 nM) was 1.07 ± 0.049 and the HDR ([4]; 10 nM) was 0.938 ± 0.035. For the same compound, the HDR ([4]; 20 nM) was 0.975 ± 0.16 and the HDR ([4]; 50 nM) was 0.321 ± 0.15.

With `NC(=O)CC[C@@H](N)C(=O)O` [D-Glutamine] (in H2O) the cell survival ([1]; 20 nM) was 0.958, the cell survival ([1]; 50 nM) was 1.03 and the cell survival ([1]; 100 nM) was 0.932. The cell survival ([1]; 200 nM) was 1.16, the cell survival ([1]; 500 nM) was 0.888 and the NHEJ-attributed indel frequency ([2]; 20 nM) was 1.02 ± 0.029. It also gave an NHEJ-attributed indel frequency ([2]; 50 nM) of 1.03 ± 0.016, an NHEJ-attributed indel frequency ([2]; 100 nM) of 1.02 ± 0.028 and an NHEJ-attributed indel frequency ([2]; 200 nM) of 1.03 ± 0.025. For the same compound, the NHEJ-attributed indel frequency ([2]; 500 nM) was 1.01 ± 0.024, the MMEJ-attributed deletion frequency ([3]; 20 nM) was 0.971 ± 0.055 and the MMEJ-attributed deletion frequency ([3]; 50 nM) was 0.874 ± 0.034. It also gave an MMEJ-attributed deletion frequency ([3]; 100 nM) of 0.887 ± 0.17, an MMEJ-attributed deletion frequency ([3]; 200 nM) of 0.933 ± 0.064 and an MMEJ-attributed deletion frequency ([3]; 500 nM) of 0.918 ± 0.092. For the same compound, the HDR ([4]; 20 nM) was 0.953 ± 0.047, the HDR ([4]; 50 nM) was 0.985 ± 0.033 and the HDR ([4]; 100 nM) was 0.9265 ± 0.0046. The HDR ([4]; 200 nM) was 0.985 ± 0.031 and the HDR ([4]; 500 nM) was 0.965 ± 0.055.
